Data published in patent US9238131B2, “Ocular iontophoresis device” (priority 2005, dated 2016).

Conditions: rabbit, 40 mg/ml in water with no buffer, 2 mA-4 min
From the text: The assignee made some comparative tests on rabbits done with a first iontophoresis device having cylindrical outer and inner walls (as known in the prior art) and a second iontophoresis device as shown in FIG. 7 (i.e. the inner wall 26 and outer wall 24 being tapered with the same inclination angle).
The two devices were designed for having the same: • application surface 2; • distance between the active electrode 10 and the application surface 2.
The area of the active electrode 30 of the second device was about three times more important than those of the first device.
For each comparative test, iontophoresis conditions were the same (2 mA-4 min).
After iontophoresis, rabbit ocular tissues were sampled. Tissues sampled included choroids and retina.
Concentrations of active substances 30 in these ocular tissues were then measured.

C[C@@H]1C[C@H]2[C@@H]3CCC4=CC(=O)C=C[C@]4(C)[C@@]3(F)[C@@H](O)C[C@]2(C)[C@@]1(O)C(=O)COP(=O)([O-])[O-].[Na+].[Na+] [Dexamethasone Disodium Phosphate]
Increase of tissue concentration, second device versus first device, choroids: 3.7
Times more active substance in the tissues with second (tapered) device than with first (cylindrical) device (choroids and retina): At least three
